In patent publication US9683018B2, “Disulfide cyclic polypeptides for the treatment of heart failure” (priority 2013, dated 2017):
Bridge positions count the residues as written; N and C are the ends. Square brackets hold non-standard residues; d marks the D form. Peptide text beside a SMILES is read from it. pGlu = O=C1CC[C@@H](C(=O)O)N1; d(hCys) = N[C@H](CCS)C(=O)O; dNle = CCCC[C@@H](N)C(=O)O; hCys = N[C@@H](CCS)C(=O)O; Nle = CCCC[C@H](N)C(=O)O; Aib = CC(C)(N)C(=O)O; Inp = O=C(O)C1CCNCC1

Legend:
[1] = target: T1, hAPJ (Homo sapiens, UniProt P35414); assay: hAPJ Calcium Flux Assay; type: cell-based; conditions: Chem-5 APJ stable cells, FLIPR calcium flux; read-out: hAPJ Ca2+ Flux EC50
T1 sequence (P35414 1-380): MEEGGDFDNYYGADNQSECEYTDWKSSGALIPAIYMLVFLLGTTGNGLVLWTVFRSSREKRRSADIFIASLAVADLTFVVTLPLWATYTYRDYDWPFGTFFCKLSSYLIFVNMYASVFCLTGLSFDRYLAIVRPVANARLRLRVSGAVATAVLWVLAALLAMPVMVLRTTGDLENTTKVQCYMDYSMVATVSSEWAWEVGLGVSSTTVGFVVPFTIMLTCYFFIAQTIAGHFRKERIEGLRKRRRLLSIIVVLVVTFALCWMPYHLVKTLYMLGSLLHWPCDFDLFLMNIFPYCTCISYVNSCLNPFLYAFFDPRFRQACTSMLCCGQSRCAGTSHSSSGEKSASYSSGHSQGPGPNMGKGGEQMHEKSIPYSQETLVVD
Procedure: Chem-5 APJ stable cells (Millipore # HTS068C) were plated in 384-well format with 10,000 cells/well in 25 ul growth media, then grown 24 hours in a 37° C. tissue culture incubator. One hour before the assay, 25 ul/well FLIPR Calcium 4 dye (Molecular Devices R8142) with 2.5 mM probenecid was added, and cells were incubated one hour in a 37° C. tissue culture incubator. Peptides were solubilized in HBSS, HEPES & 0.1% BSA buffer, and serially-diluted 10-fold, from 50 uM to 5 pM, in triplicate. FLIPR Tetra was used to add peptide to the cells with dye (1:5, for final peptide concentrations ranging from 10 uM to 1 pM). FLIPR dye inside the cells emitted fluorescence after binding to calcium, while fluorescence from outside the cells was masked. Fluorescence was measured using 470-495 excitation and 515-575 emission wavelengths on the FLIPR Tetra. Readings were done for 3 minutes total, beginning 10 seconds before the peptide addition. Maximum-minimum values were calculated and plotted for each peptide concentration, and GraphPad prism software was used to calculate EC50 values at the curve inflection points, for calcium flux stimulation by peptides.

[2] = in vitro; conditions: rat, plasma, Surrogate activity-based Plasma stability t½
Procedure: The calcium flux protocol described above was followed, with the following changes. The peptides were also incubated with 5% rat plasma (Bioreclamation # [sequence]-M, Na Heparin-treated). Readings were taken at time points t0 and t24 hrs, after incubation in a 37° C. tissue culture incubator. Peptide plasma half-life in minutes was estimated by calculating the following:
2) Calculate slope of value above and

Compound	EC50 [1] [nM]	half-life [2] [h]
CCCC[C@H]1NC(=O)[C@@H]2CCCN2C(=O)CNC(=O)[C@H](CCCCN)NC(=O)[C@H](Cc2c[nH]cn2)NC(=O)[C@H](CO)NC(=O)[C@@H](NC(=O)[C@H](CCCNC(=N)N)NC(=O)[C@@H]2CCCN2C(=O)[C@H](CCCNC(=N)N)NC(=O)[C@@H]2CCC(=O)N2)CCSSC[C@@H](C(=O)N[C@H](Cc2ccc(O)cc2)C(=O)O)NC1=O [Example 2, pE-R-P-R-hC*-S-H-K-G-P-(D-Nle)-C*-y-OH] ([pGlu]RPR[hCys]SHKGP[dNle]C[dY]-OH; disulfide 5-12)	154	0.867
CCCC[C@@H]1NC(=O)[C@@H]2CCCN2C(=O)CNC(=O)[C@H](CCCCN)NC(=O)[C@@H](NC(=O)[C@H](CO)NC(=O)[C@H](CC(C)C)NC(=O)[C@H](CCCNC(=N)N)NC(=O)[C@@H]2CCCN2C(=O)[C@H](CCCNC(=N)N)NC(=O)[C@@H]2CCC(=O)N2)CCSSCC[C@H](C(=O)N[C@@H](Cc2ccccc2)C(=O)O)NC1=O [Example 6, pE-R-P-R-L-S-hC*-K-G-P-Nle-(D-hC)*-F-OH] ([pGlu]RPRLS[hCys]KGP[Nle][d(hCys)]F-OH; disulfide 7-12)	92.8	0.208
CCCC[C@@H]1NC(=O)[C@@H]2CCCN2C(=O)CNC(=O)[C@H](CCCCN)NC(=O)[C@H](NC(=O)[C@H](CO)NC(=O)[C@H](CC(C)C)NC(=O)[C@H](CCCNC(=N)N)NC(=O)[C@@H]2CCCN2C(=O)[C@H](CCCNC(=N)N)NC(=O)[C@@H]2CCC(=O)N2)CCSSCC[C@H](C(=O)N[C@@H](Cc2ccccc2)C(=O)O)NC1=O [Example 7, pE-R-P-R-L-S-(D-hC)*-K-G-P-Nle-(D-hC)*-F-OH] ([pGlu]RPRLS[d(hCys)]KGP[Nle][d(hCys)]F-OH; disulfide 7-12)	781	2.01
CCCC[C@@H]1NC(=O)[C@@H]2CCCN2C(=O)CNC(=O)[C@H](CCCCN)NC(=O)[C@H](NC(=O)[C@H](CO)NC(=O)[C@H](CC(C)C)NC(=O)[C@H](CCCNC(=N)N)NC(=O)[C@@H]2CCCN2C(=O)[C@H](CCCNC(=N)N)NC(=O)[C@@H]2CCC(=O)N2)CCSSCC[C@@H](C(=O)N[C@@H](Cc2ccccc2)C(=O)O)NC1=O [Example 9, pE-R-P-R-L-S-(D-hC)*-K-G-P-Nle-hC*-F-OH] ([pGlu]RPRLS[d(hCys)]KGP[Nle][hCys]F-OH; disulfide 7-12)	1030	0.95
CCCC[C@@H]1NC(=O)[C@@H]2CCCN2C(=O)[C@@H](NC(=O)[C@H](CCCCN)NC(=O)[C@@H](C)NC(=O)[C@H](CO)NC(=O)[C@H](CC(C)C)NC(=O)[C@H](CCCNC(=N)N)NC(=O)[C@@H]2CCCN2C(=O)[C@H](CCCNC(=N)N)NC(=O)[C@@H]2CCC(=O)N2)CSSC[C@@H](C(=O)N[C@H](Cc2ccccc2)C(=O)O)NC1=O [Example 16, pE-R-P-R-L-S-a-K-C*-P-Nle-C*-f-OH] ([pGlu]RPRLS[dA]KCP[Nle]C[dF]-OH; disulfide 9-12)	33.2	5.38
CCCC[C@@H]1NC(=O)[C@@H]2CCCN2C(=O)[C@@H](NC(=O)[C@H](CCCCN)NC(=O)[C@H](Cc2c[nH]cn2)NC(=O)[C@@H](C)NC(=O)[C@H](CC(C)C)NC(=O)[C@H](CCCNC(=N)N)NC(=O)[C@@H]2CCCN2C(=O)[C@H](CCCNC(=N)N)NC(=O)C2CCNCC2)CSSC[C@@H](C(=O)N[C@H](Cc2ccccc2)C(=O)O)NC1=O [Example 18, Isonipecotoyl-R-P-R-L-a-H-K-C*-P-Nle-C*-f-OH] (H-[Inp]RPRL[dA]HKCP[Nle]C[dF]-OH; disulfide 9-12)	2.3	16.5

Results, then the molecule that gave them:

EC50 [1] [nM]	half-life [2] [h]	Compound
406	0.403	CCCC[C@@H]1NC(=O)[C@@H]2CCCN2C(=O)CNC(=O)[C@H](CCCCN)NC(=O)[C@@H](NC(=O)[C@H](CO)NC(=O)[C@H](CC(C)C)NC(=O)[C@H](CCCNC(=N)N)NC(=O)[C@@H]2CCCN2C(=O)[C@H](CCCNC(=N)N)NC(=O)[C@@H]2CCC(=O)N2)CSSCC[C@H](C(=O)N[C@@H](Cc2ccccc2)C(=O)O)NC1=O [Example 4, pE-R-P-R-L-S-C*-K-G-P-Nle-(D-hC)*-F-OH] ([pGlu]RPRLSCKGP[Nle][d(hCys)]F-OH; disulfide 7-12)
981	23.9	CCCC[C@@H]1NC(=O)[C@@H]2CCCN2C(=O)CNC(=O)[C@H](CCCCN)NC(=O)[C@H](NC(=O)[C@H](CO)NC(=O)[C@H](CC(C)C)NC(=O)[C@H](CCCNC(=N)N)NC(=O)[C@@H]2CCCN2C(=O)[C@H](CCCNC(=N)N)NC(=O)[C@@H]2CCC(=O)N2)CSSCC[C@H](C(=O)N[C@@H](Cc2ccccc2)C(=O)O)NC1=O [Example 5, pE-R-P-R-L-S-c*-K-G-P-Nle-(D-hC)*-F-OH] ([pGlu]RPRLS[dC]KGP[Nle][d(hCys)]F-OH; disulfide 7-12)
613	1.29	CCCC[C@@H]1NC(=O)[C@@H]2CCCN2C(=O)CNC(=O)[C@H](CCCCN)NC(=O)[C@H](NC(=O)[C@H](CO)NC(=O)[C@H](CC(C)C)NC(=O)[C@H](CCCNC(=N)N)NC(=O)[C@@H]2CCCN2C(=O)[C@H](CCCNC(=N)N)NC(=O)[C@@H]2CCC(=O)N2)CCSSC[C@@H](C(=O)N[C@@H](Cc2ccccc2)C(=O)O)NC1=O [Example 8, pE-R-P-R-L-S-(D-hC)*-K-G-P-Nle-C*-F-OH] ([pGlu]RPRLS[d(hCys)]KGP[Nle]CF-OH; disulfide 7-12)
976	1.64	CCCC[C@@H]1NC(=O)[C@@H]2CCCN2C(=O)CNC(=O)[C@H](CCCCN)NC(=O)[C@H](NC(=O)[C@H](CO)NC(=O)[C@H](CC(C)C)NC(=O)[C@H](CCCNC(=N)N)NC(=O)[C@@H]2CCCN2C(=O)[C@H](CCCNC(=N)N)NC(=O)[C@@H]2CCC(=O)N2)CCSSC[C@@H](C(=O)O)NC1=O [Example 10, pE-R-P-R-L-S-(D-hC)*-K-G-P-Nle-C*-OH] ([pGlu]RPRLS[d(hCys)]KGP[Nle]C-OH; disulfide 7-12)
113	2.28	CCCC[C@@H]1NC(=O)[C@@H]2CCCN2C(=O)CNC(=O)[C@H](CCCCN)NC(=O)[C@@H](NC(=O)[C@H](CO)NC(=O)[C@H](CC(C)C)NC(=O)[C@H](CCCNC(=N)N)NC(=O)[C@@H]2CCCN2C(=O)[C@H](CCCNC(=N)N)NC(=O)[C@@H]2CCC(=O)N2)CSSC[C@H](C(=O)N[C@@H](Cc2ccccc2)C(=O)O)NC1=O [Example 11, pE-R-P-R-L-S-C*-K-G-P-Nle-c*-F-OH] ([pGlu]RPRLSCKGP[Nle][dC]F-OH; disulfide 7-12)
81.7	1.17	CCCC[C@@H]1NC(=O)[C@@H]2CCCN2C(=O)CNC(=O)[C@H](CCCCN)NC(=O)[C@@H](NC(=O)[C@H](CO)NC(=O)[C@H](CC(C)C)NC(=O)[C@H](CCCNC(=N)N)NC(=O)[C@@H]2CCCN2C(=O)[C@H](CCCNC(=N)N)NC(=O)[C@@H]2CCC(=O)N2)CSSCC[C@@H](C(=O)N[C@@H](Cc2ccccc2)C(=O)O)NC1=O [Example 12, pE-R-P-R-L-S-C*-K-G-P-Nle-hC*-F-OH] ([pGlu]RPRLSCKGP[Nle][hCys]F-OH; disulfide 7-12)
760	1.73	CCCC[C@@H]1NC(=O)[C@@H]2CCCN2C(=O)CNC(=O)[C@H](CCCCN)NC(=O)[C@@H](NC(=O)[C@H](CO)NC(=O)[C@H](CC(C)C)NC(=O)[C@H](CCCNC(=N)N)NC(=O)[C@@H]2CCCN2C(=O)[C@H](CCCNC(=N)N)NC(=O)[C@@H]2CCC(=O)N2)CCSSCC[C@@H](C(=O)N[C@@H](Cc2ccccc2)C(=O)O)NC1=O [Example 13, pE-R-P-R-L-S-hC*-K-G-P-Nle-hC*-F-OH] ([pGlu]RPRLS[hCys]KGP[Nle][hCys]F-OH; disulfide 7-12)
72.3	36.4	CCCC[C@@H]1NC(=O)[C@@H]2CCCN2C(=O)[C@@H](NC(=O)[C@H](CCCCN)NC(=O)C(C)(C)NC(=O)[C@@H](C)NC(=O)[C@H](CC(C)C)NC(=O)[C@H](CCCNC(=N)N)NC(=O)[C@@H]2CCCN2C(=O)[C@H](CCCNC(=N)N)NC(=O)[C@@H]2CCC(=O)N2)CSSC[C@@H](C(=O)N[C@H](Cc2ccccc2)C(=O)O)NC1=O [Example 19, pE-R-P-R-L-a-Aib-K-C*-P-Nle-C*-f-OH] ([pGlu]RPRL[dA][Aib]KCP[Nle]C[dF]-OH; disulfide 9-12)
6.1	5.52	CCCC[C@@H]1NC(=O)[C@@H]2CCCN2C(=O)[C@@H](NC(=O)[C@H](CCCCN)NC(=O)C(C)(C)NC(=O)[C@H](CO)NC(=O)[C@H](CC(C)C)NC(=O)[C@H](CCCNC(=N)N)NC(=O)[C@@H]2CCCN2C(=O)[C@H](CCCNC(=N)N)NC(=O)[C@@H]2CCC(=O)N2)CSSC[C@@H](C(=O)N[C@H](Cc2ccccc2)C(=O)O)NC1=O [Example 20, pE-R-P-R-L-S-Aib-K-C*-P-Nle-C*-f-OH] ([pGlu]RPRLS[Aib]KCP[Nle]C[dF]-OH; disulfide 9-12)
